We go through 13 compounds from patent US6656951B2, “8-aza-bicyclo[3.2.1]octan-3-ol derivatives of 2,3-dihydro-1,4-benzodioxan as 5-HT1A antagonists” (Wyeth, priority 2001, dated 2003).

Structures can show the parent of a compound that is named as a salt. Where two headings read alike, the source gives them in different places.

Broadly, the melting point is the temperature, or range, at which the solid turns liquid. By Ki is commonly meant a dissociation constant, usually derived from enzyme kinetics or from competition with a known ligand. The term IC50 denotes the concentration at which inhibition is half-maximal.

For one data set, the target named is T1, human 5-HT1A receptor (Homo sapiens, UniProt P08908).
T1 construct: expressed in transfected cells; membranes
T1 sequence (P08908 1-422): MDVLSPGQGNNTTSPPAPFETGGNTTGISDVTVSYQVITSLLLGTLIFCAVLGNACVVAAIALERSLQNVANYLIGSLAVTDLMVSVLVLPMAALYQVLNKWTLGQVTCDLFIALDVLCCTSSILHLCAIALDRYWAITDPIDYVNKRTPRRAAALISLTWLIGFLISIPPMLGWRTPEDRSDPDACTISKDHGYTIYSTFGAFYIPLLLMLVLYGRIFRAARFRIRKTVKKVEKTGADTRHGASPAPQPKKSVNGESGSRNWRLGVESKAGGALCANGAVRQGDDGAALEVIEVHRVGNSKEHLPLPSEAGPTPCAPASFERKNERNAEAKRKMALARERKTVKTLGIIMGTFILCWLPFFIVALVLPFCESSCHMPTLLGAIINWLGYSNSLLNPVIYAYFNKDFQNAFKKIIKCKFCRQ
Nature of the data set: HC 5-HT1A affinity (radioligand binding, h5-HT1A.CHO cell membranes). From the text:
The 5-HT1A affinity of compounds of this invention was established in accordance with standard pharmaceutically accepted test procedures with representative compounds as follows:
Cloning of Human 5-HT1A Receptor:
The PCR cloning of the human 5-HT1A receptor subtype from a human genomic library has been described previously (Chanda et al., 1993). A stable Chinese hamster ovary cell line expressing the human 5-HT1A receptor subtype (h5-HT1A.CHO cells) was employed throughout this study. Cells were maintained in DMEM supplemented with 10% fetal calf serum, non-essential amino acids and penicillin/streptomycin.
Cells were grown to 95-100% confluency as a monolayer before membranes were harvested for binding studies. Cells were gently scraped from the culture plates, transferred to centrifuge tubes, and washed twice by centrifugation (2000 rpm for 10 min., 4° C.) in buffer (50 mM Tris; pH 7.5). The resulting pellets were aliquoted and placed at −80° C. On the day of assay, the cells were thawed on ice, and resuspended in buffer. Studies were conducted using [^3H]8-OH-DPAT as the radioligand. The binding assay was performed in 96 well microtiter plates in a final total volume of 250 μL of buffer. Competition experiments were performed by using 7 concentrations of unlabelled drug and a final ligand concentration of 1.5 nM. Non-specific binding was determined in the presence of 10 μM 5-HT. Saturation analysis was conducted by using [^3H]8-OH-DPAT at concentrations ranging from 0.3-30 nM. Following a 30 minute incubation at room temperature, the reaction was terminated by the addition of ice cold buffer and rapid filtration using a M-96 Brandel Cell Harvester (Gaithersburg, Md.) through a GF/B filter presoaked for 30 minutes in 0.5% polyethyleneimine. […]

Data set [1] deals with T2, cloned human 5-HT1A receptors (Homo sapiens, UniProt P08908).
T2 construct: expressed in transfected cells; membranes
T2 sequence (P08908 1-422): T1 sequence (P08908 1-422)
The data set is described as follows: [35S]-GTPγS binding to assess agonism/antagonism at the 5-HT1A receptor. The data set is classed as biochemical. How it is done: Assessment of Agonism/Antagonism at the 5-HT1A Receptor Using [^35S]-GTPγS Binding to Cloned Human 5-HT1A Receptors:
The [^35S]-GTPγS binding assay was similar to that used by Lazareno and Birdsall (Br. J. Pharmacol. 1993, 109, 1120). Briefly, 5-HT1A cloned receptor membrane fragments (as used for 5-HT1A receptor binding assays) were stored at −70° C. until needed. When needed, membranes were rapidly thawed, centrifuged at 40,000×g for 10 minutes and resuspended at 4° C. for 10 minutes in assay buffer (25 mM HEPES, 3 mM MgCl2, 100 mM NaCl, 1 mM EDTA, 10 uM GDP, […], pH 8.0). These membranes were then incubated for 30 min at 30° C. with [^35S]GTPgS (1 nM) in the presence of vehicle, test compound (one to eight concentrations), or excess 8-OH-DPAT to define maximum agonist response. All reactions are terminated by the addition of ice cold Tris buffer followed by rapid filtration using a Tom Tech® filtration device to separate bound from free [ ^35S]GTPgS. Agonists produce an increase in the amount of [^35S]GTPgS bound whereas antagonists produce no increase in binding. Bound radioactivity was counted and analyzed as above.
Background: GTPγS is a poorly hydrolysed GTP analogue; its binding reports G protein activation.

A further data set deals with rats. Conditions: delayed nonmatching to sample radial arm maze task; cited from earlier work.
For data set [2] the following is noted: post-training administration, autoshaping learning task; cited from earlier work.
The conditions of data set [3]: two-platform spatial discrimination task; cited from earlier work.
Where [4] appears, read: n=2, membranes of CHO cells expressing human 5-HT1A, read-out: HC 5-HT1A affinity Ki.
Setting [5] is: n=1, cloned human 5-HT1A receptor membranes.
[6] abbreviates: n=1, cloned human 5-HT1A receptor membranes, read-out: [35S]GTPgS IC50.

In turn, `COc1ccccc1C1(O)CC2CCC(C1)N2C[C@H]1COc2cccc(OC)c2O1` (stereo partly drawn) [Example 6, 8-{[(2S)-8-Methoxy-2,3-dihydro-1,4-benzodioxin-2-yl]methyl}-3-(2-methoxyphenyl)-8-azabicyclo[3.2.1]octan-3-ol] registered a melting point of 176 to 178 °C. For the same compound, the inhibition constant Ki on human 5-HT1A receptor (setting [4]) came to 39 nM.

Turning to `COc1cccc2c1O[C@@H](CN1C3CCC1CC(O)(c1ccccn1)C3)CO2` (stereo partly drawn) [Example 8, 8-{[(2S)-8-Methoxy-2,3-dihydro-1,4-benzodioxin-2-yl]methyl}-3-(2-pyridinyl)-8-azabicyclo[3.2.1]octan-3-ol], the melting point was 107 to 110 °C (dec.). Moreover, the Ki at human 5-HT1A receptor (setting [4]) worked out at 46 nM. Also, the “[35S]GTPgS Imax” value in data set [1] (setting [5]) turned out to be 100%. The IC50 in data set [1] (setting [6]) is 1480 nM.

`COc1cccc2c1O[C@@H](CN1C3CCC1CC(O)(c1cccc(C(F)(F)F)c1)C3)CO2` (stereo partly drawn) [Example 7, 8-{[(2S)-8-Methoxy-2,3-dihydro-1,4-benzodioxin-2-yl]methyl}-3-[3-(trifluoromethyl)phenyl]-8-azabicyclo[3.2.1]octan-3-ol] came in with a melting point of 104 to 107 °C. For the same compound, the Ki at human 5-HT1A receptor (setting [4]) was 0.33 nM.

For `COc1cccc2c1O[C@@H](CN1C3CCC1CC(O)(c1ccc4ccccc4c1)C3)CO2` (stereo partly drawn) [Example 11], the melting point lay in the range of 129 to 132 °C. This compound returned a Ki on human 5-HT1A receptor of 0.81 nM. Also, the IC50 in data set [1] was 9.9 nM. For the same compound, the “[35S]GTPgS Imax” value in data set [1] (setting [5]) amounted to 100%.

The compound `CCOc1cccc2c1O[C@@H](CN1C3CCC1CC(O)(c1ccccc1)C3)CO2` (stereo partly drawn) [Example 2, (S)-8-(8-Ethoxy-2,3-dihydro-benzo[1,4]dioxin-2-ylmethyl)-3-phenyl-8-aza-bicyclo[3.2.1]octan-3-ol] yielded a melting point of 152 to 155 °C. Also, on human 5-HT1A receptor (setting [4]), the inhibition constant (Ki) was determined as 3.1 nM.

In the case of `CCOc1cccc2c1O[C@@H](CN1C3CCC1CC(O)(c1csc4ccccc14)C3)CO2` (stereo partly drawn) [Example 3, (S)-3-Benzo[b]thiophen-3-yl-8-(8-ethoxy-2,3-dihydro-benzo[1,4]dioxin-2-ylmethyl)-8-aza-bicyclo[3.2.1]octan-3-ol], the melting point lay in the range of 111 to 114 °C. Further, the Ki at human 5-HT1A receptor (setting [4]) is 16.7 nM.

In turn, `COc1cccc2c1O[C@@H](CN1C3CCC1CC(O)(c1ccccc1)C3)CO2` (stereo partly drawn) [Example 10, 8-{[(2S)-8-Methoxy-2,3-dihydro-1,4-benzodioxin-2-yl]methyl}-3-phenyl-8-azabicyclo[3.2.1]octan-3-ol] displayed a melting point of 113 to 115 °C. On human 5-HT1A receptor, the Ki turned out to be 1.53 nM. Also, in data set [1], the IC50 was 25 nM. In addition, the “[35S]GTPgS Imax” value in data set [1] (setting [5]) is on record as 100%.

With `COc1ccccc1N1CCN(CCN(C(=O)C2CCCCC2)c2ccccn2)CC1` [WAY-100635], the “effect on cognitive impairment induced by MK801” value in the data set on rats is reported as “significantly reduced the cognitive impairment”. The “effect on learning deficit induced by scopolamine” value in data set [2] was “reversed the learning deficit”. In addition, the “effect on impairment of spatial learning caused by intrahippocampal injection of CPP” value in data set [3] is “prevented the impairment of spatial learning”.

The compound `COc1cccc2c1O[C@@H](CN1C3CCC1CC(O)(c1csc4ccccc14)C3)CO2` (stereo partly drawn) [Example 9, 3-(1-Benzothien-3-yl)-8-{[(2S)-8-methoxy-2,3-dihydro-1,4-benzodioxin-2-yl]methyl}-8-azabicyclo[3.2.1]octan-3-ol] registered a melting point of 162 to 164 °C. Also, on human 5-HT1A receptor (setting [4]), the Ki is 1.6 nM. In addition, the “[35S]GTPgS Imax” value in data set [1] (setting [5]) amounted to 100%. Also, the IC50 in data set [1] (setting [6]) turned out to be 36 nM.

`CCOc1cccc2c1O[C@@H](CN1C3CCC1CC(O)(c1ccccn1)C3)CO2` (stereo partly drawn) [Example 4, 8-{[(2S)-8-Ethoxy-2,3-dihydro-benzo[1,4]dioxin-2-yl]methyl)-3-pyridin-2-yl-8-aza-bicyclo[3.2.1]octan-3-ol] registered a melting point of 95 to 99 °C. Further, the Ki on human 5-HT1A receptor (setting [4]) amounted to 61.6 nM.

Compound `CCOc1cccc2c1O[C@@H](CN1C3CCC1CC(O)(c1cccc(C(F)(F)F)c1)C3)CO2` (stereo partly drawn) [Example 5, 8-{[(2S)-8-Ethoxy-2,3-dihydro-benzo[1,4]dioxin-2-yl]methyl)-3-(3-trifluoromethylphenyl)-8-aza-bicyclo[3.2.1]octan-3-ol] came in with a melting point of 86 to 90 °C. The Ki at human 5-HT1A receptor (setting [4]) worked out at 2.9 nM.

Consider `CCOc1cccc2c1O[C@@H](CN1C3CCC1CC(O)(c1ccc4ccccc4c1)C3)CO2` (stereo partly drawn) [Example 1, (S)-8-(8-Ethoxy-2,3-dihydro-benzo[1,4]dioxin-2-ylmethyl)-3-naphthalen-2-yl-8-aza-bicyclo[3.2.1]octan-3-ol], for which the Ki at human 5-HT1A receptor (setting [4]) worked out at 5.9 nM.

Consider `CCOc1cccc2c1O[C@@H](CN1C3CCC1CC(O)(c1ccc4ccccc4c1)C3)CO2` (stereo partly drawn) (as salt: oxalate) [Example 1, (S)-8-(8-Ethoxy-2,3-dihydro-benzo[1,4]dioxin-2-ylmethyl)-3-naphthalen-2-yl-8-aza-bicyclo[3.2.1]octan-3-ol], for which the melting point lay within 126 to 129 °C.
